Source: US11566007B2, “Ras inhibitors” (Revolution Medicines, Inc., priority 2019, dated 2023)
Like-named read-outs stand apart in the source and are kept apart here.

Experiments:
[1] = system: NCI-H358 (K-Ras G12C); experiment: CellTiter-Glo cell viability assay, NCI-H358; assay type: cell-based, human; conditions: NCI-H358, 5-day treatment, class symbols, read-out: Additional H358 Cell Viability assay data (K-Ras G12C, IC50)
Summary of the method: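 Viability of K-Ras mutant lines is measured by ATP luminescence after five days of compound treatment. Percent of DMSO control is calculated and dose-response data are fitted with a four-parameter logistic equation.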

[2] = target: K-Ras G12C (Homo sapiens (Human), UniProt P01116+P62937, G12C); experiment: Ras-Raf (BRAF RBD) disruption / FRET / MOA assay, KRAS G12C; assay type: biochemical; conditions: KRAS G12C; Ras-Raf disruption/FRET/MOA assay; read-out: IC50* KRAS G12C FRET data
Summary of the method: (§1)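 Compound-driven ternary complex of nucleotide-loaded Ras with cyclophilin A, disrupting BRAF RBD binding. 10-point 3-fold dilution from 30 μM final, 3 h at 25° C, then anti-His Eu-W1024 (10 nM) and anti-GST allophycocyanin (50 nM) for 1.5 h. IC50 from TR-FRET ratio decrease versus DMSO.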

[3] = target: K-Ras G13C (Homo sapiens (Human), UniProt P01116+P62937, G13C); experiment: Ras-Raf (BRAF RBD) disruption / FRET / MOA assay, KRAS G13C; assay type: biochemical; conditions: KRAS G13C; Ras-Raf disruption/FRET/MOA assay; read-out: IC50* KRAS G13C FRET data
Summary of the method: as §1

[4] = target: KRAS G12S (Homo sapiens (Human), UniProt P01116+P62937, G12S); experiment: Ras-Raf (BRAF RBD) disruption / FRET / MOA assay, KRAS G12S; assay type: biochemical; conditions: Ras-Raf disruption/FRET/MOA assay; class symbols; read-out: KRAS G12S FRET data IC50
Summary of the method: as §1

[5] = target: KRAS G12D (Homo sapiens (Human), UniProt P01116+P62937, G12D); experiment: Ras-Raf (BRAF RBD) disruption / FRET / MOA assay, KRAS G12D; assay type: biochemical; conditions: Ras-Raf disruption/FRET/MOA assay; class symbols; read-out: KRAS G12D FRET data IC50
Summary of the method: as §1

[6] = target: KRAS G12V (Homo sapiens (Human), UniProt P01116+P62937, G12V); experiment: Ras-Raf (BRAF RBD) disruption / FRET / MOA assay, KRAS G12V; assay type: biochemical; conditions: read-out: IC50* KRAS G12V FRET data
Summary of the method: as §1

[7] = target: KRAS WT (Homo sapiens (Human), UniProt P01116+P62937); experiment: Ras-Raf (BRAF RBD) disruption / FRET / MOA assay, KRAS WT; assay type: biochemical; conditions: read-out: IC50* KRAS WT FRET data
Summary of the method: as §1

[8] = target: KRAS G13D (Homo sapiens (Human), UniProt P01116+P62937, G13D); experiment: Ras-Raf (BRAF RBD) disruption / FRET / MOA assay, KRAS G13D; assay type: biochemical; conditions: read-out: IC50* KRAS G13D FRET data
Summary of the method: as §1

[9] = target: NRAS G12C (Homo sapiens (Human), UniProt P01111+P62937, G12C); experiment: Ras-Raf (BRAF RBD) disruption / FRET / MOA assay, NRAS G12C; assay type: biochemical; conditions: read-out: IC50* NRAS G12C FRET data
Summary of the method: as §1

Sequence of K-Ras G12C (P01116-2 other isoform, or with tags, fused parts or gaps G12C): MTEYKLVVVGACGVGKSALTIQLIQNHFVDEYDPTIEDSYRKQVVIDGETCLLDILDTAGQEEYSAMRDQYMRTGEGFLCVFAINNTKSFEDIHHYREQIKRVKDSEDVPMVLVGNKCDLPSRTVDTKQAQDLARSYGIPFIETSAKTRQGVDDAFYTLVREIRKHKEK
Sequence of K-Ras G12C (P62937 whole entry): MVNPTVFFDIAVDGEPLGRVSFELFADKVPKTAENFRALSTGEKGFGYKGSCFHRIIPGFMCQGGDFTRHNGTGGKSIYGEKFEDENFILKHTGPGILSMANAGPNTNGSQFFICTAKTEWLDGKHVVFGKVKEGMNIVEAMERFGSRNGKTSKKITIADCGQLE
Sequence of KRAS G12S (P01116-2 other isoform, or with tags, fused parts or gaps G12S): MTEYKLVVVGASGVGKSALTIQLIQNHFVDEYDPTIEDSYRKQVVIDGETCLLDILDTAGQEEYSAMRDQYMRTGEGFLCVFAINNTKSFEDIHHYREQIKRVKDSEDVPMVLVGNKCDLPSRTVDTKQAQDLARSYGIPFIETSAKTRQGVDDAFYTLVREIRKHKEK
Sequence of KRAS G12S (P62937 whole entry): as the sequence (P62937 whole entry) above
Sequence of KRAS G12V (P01116-2 other isoform, or with tags, fused parts or gaps G12V): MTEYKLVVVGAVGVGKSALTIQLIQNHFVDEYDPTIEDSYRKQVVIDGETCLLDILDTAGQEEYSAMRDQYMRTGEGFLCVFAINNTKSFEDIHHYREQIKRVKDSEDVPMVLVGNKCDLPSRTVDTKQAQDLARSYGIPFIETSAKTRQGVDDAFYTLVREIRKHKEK
Sequence of KRAS G12V (P62937 whole entry): as the sequence (P62937 whole entry) above
Sequence of NRAS G12C (P01111 whole entry G12C): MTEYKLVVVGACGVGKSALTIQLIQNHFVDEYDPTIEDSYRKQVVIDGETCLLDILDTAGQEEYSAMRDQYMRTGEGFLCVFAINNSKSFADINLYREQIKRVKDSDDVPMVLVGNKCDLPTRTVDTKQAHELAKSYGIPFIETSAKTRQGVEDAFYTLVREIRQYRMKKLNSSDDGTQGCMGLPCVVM
Sequence of NRAS G12C (P62937 whole entry): as the sequence (P62937 whole entry) above
Sequence of KRAS G12D (P01116-2 other isoform, or with tags, fused parts or gaps G12D): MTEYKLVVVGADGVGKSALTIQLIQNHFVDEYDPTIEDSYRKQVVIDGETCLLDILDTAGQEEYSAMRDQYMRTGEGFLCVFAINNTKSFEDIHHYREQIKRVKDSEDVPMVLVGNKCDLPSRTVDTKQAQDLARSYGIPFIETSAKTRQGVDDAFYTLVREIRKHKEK
Sequence of KRAS G12D (P62937 whole entry): as the sequence (P62937 whole entry) above
Sequence of KRAS G13D (P01116-2 other isoform, or with tags, fused parts or gaps G13D): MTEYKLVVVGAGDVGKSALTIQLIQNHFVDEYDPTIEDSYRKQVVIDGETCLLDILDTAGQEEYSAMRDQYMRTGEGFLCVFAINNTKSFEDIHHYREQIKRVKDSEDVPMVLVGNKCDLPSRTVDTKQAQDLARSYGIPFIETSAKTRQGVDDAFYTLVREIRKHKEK
Sequence of KRAS G13D (P62937 whole entry): as the sequence (P62937 whole entry) above
Sequence of K-Ras G13C (P01116-2 other isoform, or with tags, fused parts or gaps G13C): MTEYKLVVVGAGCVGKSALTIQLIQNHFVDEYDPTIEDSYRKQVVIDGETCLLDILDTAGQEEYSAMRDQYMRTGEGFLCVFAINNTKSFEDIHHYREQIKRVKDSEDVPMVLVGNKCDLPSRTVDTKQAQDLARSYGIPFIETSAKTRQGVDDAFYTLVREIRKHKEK
Sequence of K-Ras G13C (P62937 whole entry): as the sequence (P62937 whole entry) above
Sequence of KRAS WT (P01116-2 other isoform, or with tags, fused parts or gaps): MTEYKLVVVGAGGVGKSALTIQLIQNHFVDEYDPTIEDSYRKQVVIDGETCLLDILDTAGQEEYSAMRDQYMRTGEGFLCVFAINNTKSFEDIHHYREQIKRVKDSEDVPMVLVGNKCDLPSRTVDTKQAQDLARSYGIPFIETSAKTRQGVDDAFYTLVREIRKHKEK
Sequence of KRAS WT (P62937 whole entry): as the sequence (P62937 whole entry) above

SMILES | IC50 ([1]; Homo sapiens, NCI-H358, 120 h) | IC50 [2] | IC50 [3] | IC50 [4] | IC50 [5] | IC50 [6] | IC50 [7] | IC50 [8] | IC50 [9] | IC50 [1]
C=CC(=O)N1CC[C@H](C(=O)N(C)[C@H](C(=O)N[C@H]2Cc3cccc(c3)-c3ccc4c(c3)c(c(-c3ccccc3[C@H](C)OC)n4CC)CC(C)(C)COC(=O)[C@@H]3CCCN(N3)C2=O)C(C)C)C1 (atropisomer, axis not shown) [Example A114] | 0.1 to 1 µM | > 10 µM | > 10 µM | > 10 µM | > 10 µM | > 10 µM | > 10 µM | > 10 µM | > 10 µM | –
C=CC(=O)N1CC[C@H](C(=O)N(C)[C@H](C(=O)N[C@H]2Cn3cnc(n3)-c3ccc4c(c3)c(c(-c3cccnc3[C@H](C)OC)n4CC)CC(C)(C)COC(=O)[C@@H]3CCCN(N3)C2=O)C(C)C)C1 (atropisomer, axis not shown) [Example A506] | 0.1 to 1 µM | 0.1 to 1 µM | 1 to 10 µM | 1 to 10 µM | > 10 µM | 1 to 10 µM | 1 to 10 µM | > 10 µM | 0.1 to 1 µM | –
C=CC(=O)N1CC[C@H](C(=O)N(C)[C@H](C(=O)N[C@H]2CN(C)C(=O)Cc3ccc4c(c3)c(c(-c3cccnc3COC)n4CC)CC(C)(C)COC(=O)[C@@H]3CCCN(N3)C2=O)C(C)C)C1 [Example A239] | > 1 µM | > 10 µM | > 10 µM | > 10 µM | > 10 µM | > 10 µM | > 10 µM | > 10 µM | > 10 µM | –
C=CC(=O)N1CC(OCC(C(=O)N[C@H]2Cc3cc(cc(C(F)F)c3)-c3ccc4c(c3)c(c(-c3cccnc3[C@H](C)OC)n4CC(F)(F)F)CC(C)(C)COC(=O)[C@@H]3CCCN(N3)C2=O)C(C)C)C1 (mixture of isomers) [Example A428] | > 1 µM | > 10 µM | > 10 µM | > 10 µM | > 10 µM | > 10 µM | > 10 µM | > 10 µM | > 10 µM | –
C=CC(=O)N1CC[C@H](C(=O)N(C)[C@H](C(=O)N(C)[C@H]2Cc3cc(O)cc(c3)-c3ccc4c(c3)c(c(-c3cccnc3COC)n4CC)CC(C)(C)COC(=O)[C@@H]3CCCN(N3)C2=O)C(C)C)C1 [Example A230] | > 1 µM | > 10 µM | > 10 µM | > 10 µM | > 10 µM | > 10 µM | > 10 µM | > 10 µM | > 10 µM | –
C=CC(=O)N1CC[C@H](C(=O)N(C)[C@H](C(=O)N[C@H]2Cc3cccc(c3)-c3ccc4c(c3)c(c(-c3cc(C5CCN(C)CC5)cnc3[C@H](C)OC)n4CC)CC(C)(C)COC(=O)[C@@H]3CCCN(N3)C2=O)C(C)C)C1 (atropisomer, axis not shown) [Example A516] | – | 1 to 10 µM | 1 to 10 µM | > 10 µM | > 10 µM | > 10 µM | > 10 µM | > 10 µM | 1 to 10 µM | > 1 µM
C=CC(=O)N1CC[C@H](C(=O)N(C)[C@H](C(=O)N[C@@H]2C(=O)N3CCC[C@H](N3)C(=O)OCC(C)(C)Cc3c(-c4cncnc4)n(CC)c4ccc(cc34)-c3cccc(c3)[C@@H]2OC)C(C)C)C1 [Example A271] | > 1 µM | > 10 µM | > 10 µM | > 10 µM | > 10 µM | > 10 µM | > 10 µM | > 10 µM | > 10 µM | –
CCn1c(-c2cccnc2[C@H](C)OC)c2c3cc(ccc31)-c1cccc(c1)C[C@H](NC(=O)[C@H](C(C)C)N(C)C(=O)[C@H]1CCN(C(=O)/C=C/CN3CC(OC)C3)C1)C(=O)N1CCC[C@H](N1)C(=O)OCC(C)(C)C2 (atropisomer, axis not shown) [Example A203] | – | 1 to 10 µM | > 10 µM | > 10 µM | > 10 µM | > 10 µM | > 10 µM | > 10 µM | 1 to 10 µM | > 1 µM
C=CC(=O)N1CCC(C(=O)N(C)[C@H](C(=O)N[C@H]2Cc3cc(O)cc(c3)-c3ccc4c(c3)c(c(-c3ccccc3CCOC)n4CC)CC(C)(C)c3coc(n3)[C@@H]3CCCN(N3)C2=O)C(C)C)C1 (single isomer, unassigned) [Example A231] | > 1 µM | > 10 µM | > 10 µM | > 10 µM | > 10 µM | > 10 µM | > 10 µM | > 10 µM | > 10 µM | –
C=CC(=O)N1CC[C@H](C(=O)N(C)[C@H](C(=O)N[C@H]2Cc3cc(OC4O[C@H](CO)[C@@H](O)[C@H](O)[C@H]4O)cc(c3)-c3ccc4c(c3)c(c(-c3cccnc3COC)n4CC)CC(C)(C)COC(=O)[C@@H]3CCCN(N3)C2=O)C(C)C)C1 (stereo partly drawn) [Example A234] | > 1 µM | > 10 µM | > 10 µM | > 10 µM | > 10 µM | > 10 µM | > 10 µM | > 10 µM | > 10 µM | –
C=CC(=O)N1CC[C@H](C(=O)N(C)[C@H](C(=O)N[C@H]2Cc3nc(cs3)-c3ccc4c(c3)c(c(-c3cccnc3[C@H](C)OC)n4CC)CC(C)(C)C/C=C/[C@@H]3CCCN(N3)C2=O)C(C)C)C1 (atropisomer, axis not shown) [Example A286] | > 1 µM | > 10 µM | > 10 µM | > 10 µM | > 10 µM | > 10 µM | > 10 µM | > 10 µM | > 10 µM | –
C=CC(=O)N1CC(OCC(C(=O)N[C@H]2Cc3cc(cc(C(F)F)c3)-c3ccc4c(c3)c(c(-c3cccnc3[C@H](C)OC)n4CC)CC(C)(C)COC(=O)[C@@H]3CCCN(N3)C2=O)C(C)C)C1 (mixture of isomers) [Example A450] | > 1 µM | > 10 µM | > 10 µM | > 10 µM | > 10 µM | > 10 µM | > 10 µM | > 10 µM | > 10 µM | –
COCc1ncccc1-c1nc2ccc3cc2n1CC(C)(C)COC(=O)[C@@H]1CCCN(N1)C(=O)[C@@H](NC(=O)[C@H](C(C)C)N(C)C(=O)[C@H]1CCN(C(=O)C#CCN2CCOCC2)C1)Cc1cc(O)cc-3c1 [Example A188] | > 1 µM | 0.1 to 1 µM | > 10 µM | > 10 µM | > 10 µM | > 10 µM | > 10 µM | > 10 µM | 0.1 to 1 µM | –
CC#CC(=O)N1CC[C@H](C(=O)N(C)[C@H](C(=O)N[C@H]2Cc3nc(cs3)-c3ccc4c(c3)c(c(-c3cccnc3[C@H](C)OC)n4C(C)=O)CC(C)(C)COC(=O)[C@@H]3CCCN(N3)C2=O)C(C)C)C1 [Example A293] | > 1 µM | > 10 µM | > 10 µM | > 10 µM | > 10 µM | > 10 µM | > 10 µM | > 10 µM | > 10 µM | –
